Biological target: T1, LmbW (Streptomyces lincolnensis, UniProt A9Y8T3)
T1 construct: gene SLINC_0255; lmbW amplified from LK6 cosmid, cloned in pET42b(+), produced in E. coli BL21(DE3), purified as described for LmbC
T1 sequence (A9Y8T3 1-350): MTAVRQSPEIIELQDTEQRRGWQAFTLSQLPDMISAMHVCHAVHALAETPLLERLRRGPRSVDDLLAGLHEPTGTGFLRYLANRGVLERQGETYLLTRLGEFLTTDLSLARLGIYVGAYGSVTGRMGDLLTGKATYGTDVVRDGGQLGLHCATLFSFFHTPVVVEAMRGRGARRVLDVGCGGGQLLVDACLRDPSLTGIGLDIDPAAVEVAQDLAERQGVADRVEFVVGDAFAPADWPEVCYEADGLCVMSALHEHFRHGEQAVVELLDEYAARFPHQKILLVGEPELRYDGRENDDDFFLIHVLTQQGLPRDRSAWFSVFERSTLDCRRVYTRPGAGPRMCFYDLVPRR
Assay: LC-MS of methylated product
Type: biochemical
Conditions: methyl donor; co-substrate 3 4 mM, S-adenosylmethionine 4 mM, glycine buffer 40 mM pH 9.5, 28°C, 1 h

Compound: C[S+](CC[C@H](N)C(=O)O)C[C@H]1O[C@@H](n2cnc3c(N)ncnc32)[C@H](O)[C@@H]1O (stereo partly shown) [S-adenosylmethionine]
- LC-MS of methylated product: In the reaction with LmbW and S-adenosylmethionine, we identified a product

Source: PMC4780272, “New Concept of the Biosynthesis of 4-Alkyl-L-Proline Precursors of Lincomycin, Hormaomycin, and Pyrrolobenzodiazepines: Could a γ-Glutamyltransferase Cleave the C–C Bond?” (Frontiers in Microbiology, 2016)
